In patent US20220395496A1 (Hoffmann-La Roche Inc., priority 2019, published 2022):

Each molecule was assayed against T1, human TLR9 (Homo sapiens, UniProt Q9NR96) (assay: HEK293-Blue-hTLR-9 cells assay (SEAP reporter, ODN2006 stimulation)). Settings: HEK293-Blue-hTLR9 cells, ODN2006, 20 hrs.
T1 sequence (Q9NR96 26-1032): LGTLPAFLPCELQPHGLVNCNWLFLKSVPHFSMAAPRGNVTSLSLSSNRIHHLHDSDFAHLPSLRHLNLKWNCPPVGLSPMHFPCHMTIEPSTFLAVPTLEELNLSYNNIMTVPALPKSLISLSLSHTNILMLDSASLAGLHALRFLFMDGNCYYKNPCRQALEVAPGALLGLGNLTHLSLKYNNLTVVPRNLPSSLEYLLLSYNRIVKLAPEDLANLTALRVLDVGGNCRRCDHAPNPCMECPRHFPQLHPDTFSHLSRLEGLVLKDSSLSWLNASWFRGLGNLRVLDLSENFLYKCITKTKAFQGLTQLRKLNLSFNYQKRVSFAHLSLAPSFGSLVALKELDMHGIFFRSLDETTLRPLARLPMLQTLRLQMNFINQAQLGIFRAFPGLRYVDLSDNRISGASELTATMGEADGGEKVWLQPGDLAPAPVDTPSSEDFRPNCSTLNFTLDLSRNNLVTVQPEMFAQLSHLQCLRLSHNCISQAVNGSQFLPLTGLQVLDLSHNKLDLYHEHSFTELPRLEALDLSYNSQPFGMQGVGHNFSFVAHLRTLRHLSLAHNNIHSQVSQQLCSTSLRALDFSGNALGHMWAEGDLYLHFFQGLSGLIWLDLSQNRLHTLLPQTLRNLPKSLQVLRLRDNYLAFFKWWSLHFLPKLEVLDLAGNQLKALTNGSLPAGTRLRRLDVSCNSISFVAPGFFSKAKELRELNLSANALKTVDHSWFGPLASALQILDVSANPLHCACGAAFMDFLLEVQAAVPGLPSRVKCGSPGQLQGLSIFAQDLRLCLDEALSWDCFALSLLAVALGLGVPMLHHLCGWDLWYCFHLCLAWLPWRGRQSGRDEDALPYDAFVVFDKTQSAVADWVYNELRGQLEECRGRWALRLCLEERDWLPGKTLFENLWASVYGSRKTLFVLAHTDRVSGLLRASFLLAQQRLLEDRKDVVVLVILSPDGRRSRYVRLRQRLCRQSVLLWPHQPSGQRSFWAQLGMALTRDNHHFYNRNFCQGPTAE
Assay type: cell-based
Experimental: The following tests were carried out in order to determine the activity of the compounds of this invention in HEK293-Blue-hTLR-7/8/9 cells assay.
HEK293-Blue-hTLR-9 Cells Assay:
A stable HEK293-Blue-hTLR-9 cell line was purchased from InvivoGen (Cat. #: hkb-htlr9, San Diego, Calif., USA). These cells were originally designed for studying the stimulation of human TLR9 by monitoring the activation of NF-κB. A SEAP (secreted embryonic alkaline phosphatase) reporter gene was placed under the control of the IFN-β minimal promoter fused to five NF-κB and AP-1-binding sites. The SEAP was induced by activating NF-κB and AP-1 via stimulating HEK-Blue hTLR9 cells with TLR9 ligands. Therefore the reporter expression was declined by TLR9 antagonist under the stimulation of a ligand, such as ODN2006 (Cat. #: tlr1-2006-1, Invivogen, San Diego, Calif., USA), for incubation of 20 hrs. The cell culture supernatant SEAP reporter activity was determined using QUANTI-Blue™ kit (Cat. #: rep-qb1, Invivogen, San Diego, Calif., USA) at a wavelength of 640 nm, a detection medium that turns purple or blue in the presence of alkaline phosphatase.
HEK293-Blue-hTLR9 cells were incubated at a density of 250,000˜450,000 cells/mL in a volume of 170 μL in a 96-well plate in Dulbecco's Modified Eagle's medium (DMEM) containing 4.5 g/L glucose, 50 U/mL penicillin, […], 2 mM L-glutamine, 10% (v/v) heat-inactivated fetal bovine serum with addition of 20 μL test compound in a serial dilution in the presence of final DMSO at 1% and 10 μL of 20 uM ODN2006 in above DMEM, perform incubation under 37° C. in a CO2 incubator for 20 hrs. Then 20 μL of the supernatant from each well was incubated with 180 μL Quanti-blue substrate solution at 37° C. for 2 hrs and the absorbance was read at 620˜655 nm using a spectrophotometer. The signalling pathway that TLR9 activation leads to downstream NF-κB activation has been widely accepted, and therefore similar reporter assay was modified for evaluating TLR9 antagonist.

| IC50 | Compound |
| --- | --- |
| 32 nM | C[C@H]1C[C@@H](NCc2cnc(N3CCN[C@@H](C)C3)nc2)CN(c2ccc(C#N)c3ncccc23)C1 [Example 29, 5-[(3S,5R)-3-methyl-5-[[2-[(3S)-3-methylpiperazin-1-yl]pyrimidin-5-yl]methylamino]-1-piperidyl]quinoline-8-carbonitrile] |
| 33 nM | C[C@H]1C[C@@H](NCc2ccc3c(n2)CCNC3)CN(c2ccc(C#N)c3ncccc23)C1 [Example 30, 5-[(3S,5R)-3-methyl-5-(5,6,7,8-tetrahydro-1,6-naphthyridin-2-ylmethylamino)-1-piperidyl]quinoline-8-carbonitrile] |
| 47 nM | C[C@H]1C[C@@H](NCc2cnc(N3CCNCC3)cn2)CN(c2ccc(C#N)c3ncccc23)C1 [Example 31, 5-[(3S,5R)-3-methyl-5-[(5-piperazin-1-ylpyrazin-2-yl)methylamino]-1-piperidyl]quinoline-8-carbonitrile] |

| Compound | IC50 |
| --- | --- |
| C[C@H]1C[C@@H](NCc2ccccc2)CN(c2ccc(C#N)c3ncccc23)C1 [Example R1, reference compound] | 1870 nM |
| C[C@H]1C[C@@H](N2Cc3ccccc3C2)CN(c2ccc(C#N)c3ncccc23)C1 [Example R2, reference compound] | 8660 nM |
